Paper PMC3169406, “Structure of a cyclin-dependent kinase from Giardia lamblia” (Acta Crystallographica Section F: Structural Biology and …, 2011)

Molecular target: T1, GlCDK (cyclin-dependent kinase from G. lamblia) (Giardia duodenalis, UniProt A8BZ95)
T1 construct: gene GL50803_008037; monomer in asymmetric unit; residues Ser11-Pro308 observed
T1 sequence (A8BZ95 1-308): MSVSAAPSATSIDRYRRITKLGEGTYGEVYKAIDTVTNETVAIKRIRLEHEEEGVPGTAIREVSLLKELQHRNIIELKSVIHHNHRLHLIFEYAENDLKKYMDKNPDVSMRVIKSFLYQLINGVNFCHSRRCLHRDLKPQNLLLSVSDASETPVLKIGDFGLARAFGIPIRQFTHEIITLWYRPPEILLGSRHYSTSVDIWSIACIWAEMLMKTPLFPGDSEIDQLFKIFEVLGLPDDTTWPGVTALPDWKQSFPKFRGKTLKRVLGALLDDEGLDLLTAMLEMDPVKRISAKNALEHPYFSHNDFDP
Assay: X-ray crystal structure, […] A, crystal soak
Conditions: 1 mM AMP, 1 mM MgCl2, overnight soak; 200 mM sodium/potassium tartrate, 100 mM Bis-Tris propane, 25% PEG 3350; no cyclin; ATP-binding site

Nc1ncnc2c1ncn2[C@@H]1O[C@H](COP(=O)(O)O)[C@@H](O)[C@H]1O [AMP, adenosine monophosphate]
X-ray crystal structure, 2.0 A, crystal soak: Good OMIT density was observed for one AMP molecule
